In patent US20040204463A1, “N-aryl-2-oxazolidinone-5-carboxamides and their derivatives” (priority 2003, published 2004):
≈ marks a conversion by molar mass, not a printed value.

Assays:
SAUR 9213 = test: In vitro MIC by standard agar dilution method, SAUR 9213; assay type: cell-based, S. aureus; details: Staphylococcus aureus; agar dilution, Mueller Hinton agar, incubated overnight at 35° C.; lowest concentration that inhibits visible growth; read-out: SAUR 9213 MIC (Minimum Inhibitory Concentration)
Source text: (§1) The oxazolidinone antibacterial agents of this invention have useful activity against a variety of organisms. The in vitro activity of compounds of this invention can be assessed by standard testing procedures such as the determination of minimum inhibitory concentration (MIC) by agar dilution as described in “Approved Standard. Methods for Dilution Antimicrobial Susceptibility Tests for Bacteria That Grow Aerobically”, 3rd. ed., published 1993 by the National Committee for Clinical Laboratory Standards, Villanova, Pa., USA.
(§2) The in vitro MICs of test compounds were determined by a standard agar dilution method. A stock drug solution of each analog was prepared in the preferred solvent, usually DMSO: H2O (1:3). Serial 2-fold dilutions of each sample are made using 1.0 ml aliquots of sterile distilled water. To each 1.0 ml aliquot of drug was added 9 ml of molten Mueller Hinton agar medium. The drug-supplemented agar was mixed, poured into 15×100 mm petri dishes, and allowed to solidify and dry prior to inoculation.
(§3) Vials of each of the test organisms are maintained frozen in the vapor phase of a liquid nitrogen freezer. Test cultures are grown overnight at 35° C. on the medium appropriate for the organism. Colonies are harvested with a sterile swab, and cell suspensions are prepared in Trypticase Soy broth (TSB) to equal the turbidity of a 0.5 McFarland standard. A 1:20 dilution of each suspension was made in TSB. The plates containing the drug supplemented agar are inoculated with a 0.001 ml drop of the cell suspension using a Steers replicator, yielding approximately 10^4 to 10^5 cells per spot. The plates are incubated overnight at 35° C.
(§4) Following incubation the Minimum Inhibitory Concentration (MIC μg/ml), the lowest concentration of drug that inhibits visible growth of the organism, was read and recorded.

SPNE 9912 = test: In vitro MIC by standard agar dilution method, SPNE 9912; assay type: cell-based; details: agar dilution, Mueller Hinton agar, incubated overnight at 35° C.; lowest concentration that inhibits visible growth; read-out: SPNE 9912 MIC (Minimum Inhibitory Concentration)
Source text: as §1, §2, §3, §4

HINF 30063 = test: In vitro MIC by standard agar dilution method, HINF 30063; assay type: cell-based, H. influenzae; details: Haemophilus influenzae; agar dilution, Mueller Hinton agar, incubated overnight at 35° C.; lowest concentration that inhibits visible growth; read-out: HINF 30063 MIC (Minimum Inhibitory Concentration)
Source text: as §1, §2, §3, §4

Row | Compound | MIC (SAUR 9213) [µg/mL] | MIC (SPNE 9912) [µg/mL] | MIC (HINF 30063) [µg/mL]
1 | CC(=O)NC[C@H]1CN(c2ccc(N3CCN(C(=O)CCCC#Cc4ccc(CN)cc4)CC3)c(F)c2)C(=O)O1 [Compound 26, N-({(5S)-3-[4-(4-{6-[4-(aminomethyl)phenyl]hex-5-ynoyl}piperazin-1-yl)-3-fluorophenyl]-2-oxo-1,3-oxazolidin-5-yl}methyl)acetamide] | 4 (≈ 7.47 µM) | 0.25 (≈ 0.467 µM) | 16 (≈ 29.9 µM)
2 | CC(=O)NC[C@H]1CN(c2ccc(N3CCN(C(=O)CCCC#Cc4cccc(O)c4)CC3)c(F)c2)C(=O)O1 [Compound 27, N-{[(5S)-3-(3-fluoro-4-{4-[6-(3-hydroxyphenyl)hex-5-ynoyl]piperazin-1-yl}phenyl)-2-oxo-1,3-oxazolidin-5-yl]methyl}acetamide] | 8 (≈ 15.3 µM) | 1 (≈ 1.91 µM) | > 64
3 | CC(=O)NC[C@H]1CN(c2ccc(N3CCN(C(=O)CCC#Cc4cccc(O)c4)CC3)c(F)c2)C(=O)O1 [Compound 29, N-{[(5S)-3-(3-fluoro-4-{4-[5-(3-hydroxyphenyl)pent-4-ynoyl]piperazin-1-yl}phenyl)-2-oxo-1,3-oxazolidin-5-yl]methyl}acetamide] | 4 (≈ 7.87 µM) | 1 (≈ 1.97 µM) | > 64
4 | CC(=O)NC[C@H]1CN(c2ccc(N3CCN(C(=O)CCC#Cc4ccc(O)cc4)CC3)c(F)c2)C(=O)O1 [Compound 30, N-{[(5S)-3-(3-fluoro-4-{4-[5-(4-hydroxyphenyl)pent-4-ynoyl]piperazin-1-yl}phenyl)-2-oxo-1,3-oxazolidin-5-yl]methyl}acetamide] | 4 (≈ 7.87 µM) | 1 (≈ 1.97 µM) | 64 (≈ 126 µM)
5 | C#CCCCCC(=O)N1CCN(c2ccc(N3C[C@H](CNC(C)=O)OC3=O)cc2F)CC1 [Compound 31, N-({(5S)-3-[3-fluoro-4-(4-hept-6-ynoylpiperazin-1-yl)phenyl]-2-oxo-1,3-oxazolidin-5-yl}methyl)acetamide] | 4 (≈ 9 µM) | 1 (≈ 2.25 µM) | 64 (≈ 144 µM)
6 | CC(=O)NC[C@H]1CN(c2ccc(N3CCN(C(=O)CCCCC#Cc4cccc(CN)c4)CC3)c(F)c2)C(=O)O1 [Compound 32, N-({(5S)-3-[4-(4-{7-[3-(aminomethyl)phenyl]hept-6-ynoyl}-piperazin-1-yl)-3-fluorophenyl]-2-oxo-1,3-oxazolidin-5-yl}methyl)acetamide] | 4 (≈ 7.28 µM) | 2 (≈ 3.64 µM) | 64 (≈ 116 µM)
7 | CC(=O)NC[C@H]1CN(c2ccc(N3CCN(C(=O)CCC#Cc4cccc(CN)c4)CC3)c(F)c2)C(=O)O1 [Compound 33, N-({(5S)-3-[4-(4-{5-[3-(aminomethyl)phenyl]pent-4-ynoyl}piperazin-1-yl)-3-fluorophenyl]-2-oxo-1,3-oxazolidin-5-yl}-methyl)acetamide] | 4 (≈ 7.67 µM) | 1 (≈ 1.92 µM) | 16 (≈ 30.7 µM)
